Where two headings read alike, the source gives them in different places. Square brackets hold non-standard residues; d marks the D form. Ends that are not written are not given here. sY = N[C@@H](Cc1ccc(OS(=O)(=O)O)cc1)C(=O)O
T1: canine CCK2 receptor (Canis lupus familiaris, UniProt P30552)
T1 sequence (P30552 1-453): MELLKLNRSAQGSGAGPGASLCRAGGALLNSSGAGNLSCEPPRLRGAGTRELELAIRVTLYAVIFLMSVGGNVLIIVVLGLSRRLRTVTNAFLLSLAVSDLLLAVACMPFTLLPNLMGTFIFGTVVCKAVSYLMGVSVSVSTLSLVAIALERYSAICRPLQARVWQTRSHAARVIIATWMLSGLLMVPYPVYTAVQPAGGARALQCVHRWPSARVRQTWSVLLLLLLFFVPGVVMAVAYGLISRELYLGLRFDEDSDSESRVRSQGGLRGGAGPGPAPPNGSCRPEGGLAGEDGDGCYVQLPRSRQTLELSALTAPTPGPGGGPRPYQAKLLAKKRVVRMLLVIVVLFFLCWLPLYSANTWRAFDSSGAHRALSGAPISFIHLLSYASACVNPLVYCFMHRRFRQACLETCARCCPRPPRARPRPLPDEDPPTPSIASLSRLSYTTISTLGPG

T2: human CCK1 receptor (Homo sapiens, UniProt P32238)
T2 construct: expressed in transfected cells
T2 sequence (P32238 1-428): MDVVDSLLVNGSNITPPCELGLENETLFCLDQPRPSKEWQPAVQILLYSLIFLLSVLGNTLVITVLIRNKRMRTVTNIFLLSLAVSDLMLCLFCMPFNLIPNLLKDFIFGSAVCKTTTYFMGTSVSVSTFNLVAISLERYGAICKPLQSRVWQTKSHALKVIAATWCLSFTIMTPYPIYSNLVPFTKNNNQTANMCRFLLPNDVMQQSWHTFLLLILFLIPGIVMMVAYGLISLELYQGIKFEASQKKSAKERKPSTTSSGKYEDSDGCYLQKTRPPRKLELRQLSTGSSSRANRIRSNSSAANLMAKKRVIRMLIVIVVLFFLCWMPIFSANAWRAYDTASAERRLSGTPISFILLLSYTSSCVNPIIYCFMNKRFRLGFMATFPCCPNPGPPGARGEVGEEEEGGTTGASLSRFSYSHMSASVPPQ

T3: Canine CCK1: Wild-type (Canis lupus familiaris, UniProt Q5D0K2)
T3 construct: The ORF encodes a 428 amino-acid protein; expressed in transfected cells; host or cells: HEK-293 cells, transient
T3 sequence (Q5D0K2 1-428): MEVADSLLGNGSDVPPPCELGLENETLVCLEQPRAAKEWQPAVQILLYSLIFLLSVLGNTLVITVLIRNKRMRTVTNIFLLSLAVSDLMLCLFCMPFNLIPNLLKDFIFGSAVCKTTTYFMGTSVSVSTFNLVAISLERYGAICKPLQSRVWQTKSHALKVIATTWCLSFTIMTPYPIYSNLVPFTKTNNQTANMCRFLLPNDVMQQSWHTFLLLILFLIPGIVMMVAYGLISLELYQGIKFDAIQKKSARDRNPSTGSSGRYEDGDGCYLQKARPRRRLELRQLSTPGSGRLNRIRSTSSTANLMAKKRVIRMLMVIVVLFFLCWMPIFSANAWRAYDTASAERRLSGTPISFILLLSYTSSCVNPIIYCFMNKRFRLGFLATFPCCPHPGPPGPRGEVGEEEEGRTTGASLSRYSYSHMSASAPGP

T4: canine CCK1 receptor (Canis lupus familiaris, UniProt Q5D0K2)
T4 construct: expressed in transfected cells
T4 sequence (Q5D0K2 1-428): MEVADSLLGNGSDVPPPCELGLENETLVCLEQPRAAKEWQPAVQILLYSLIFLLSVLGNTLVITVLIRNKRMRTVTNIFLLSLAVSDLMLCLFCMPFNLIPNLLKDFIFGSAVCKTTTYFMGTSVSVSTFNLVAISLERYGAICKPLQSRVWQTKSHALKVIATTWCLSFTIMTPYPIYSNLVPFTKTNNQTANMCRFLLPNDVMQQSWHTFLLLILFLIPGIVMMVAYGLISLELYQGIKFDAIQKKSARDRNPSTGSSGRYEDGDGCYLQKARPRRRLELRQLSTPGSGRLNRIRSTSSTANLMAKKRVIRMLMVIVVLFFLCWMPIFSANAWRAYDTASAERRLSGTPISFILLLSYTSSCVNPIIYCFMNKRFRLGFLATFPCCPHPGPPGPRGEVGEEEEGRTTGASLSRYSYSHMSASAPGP

T5: Canine CCK1: Variant #1 (Canis lupus familiaris, UniProt Q5D0K2, G258S/L413V/V400A)
T5 construct: plasmid DNAs containing the respective variant canine CCK1 receptor cDNAs and the wild type cDNA were transiently transfected; expressed in transfected cells; host or cells: HEK-293 cells, transient
T5 sequence (Q5D0K2 1-428 G258S/V400A/L413V): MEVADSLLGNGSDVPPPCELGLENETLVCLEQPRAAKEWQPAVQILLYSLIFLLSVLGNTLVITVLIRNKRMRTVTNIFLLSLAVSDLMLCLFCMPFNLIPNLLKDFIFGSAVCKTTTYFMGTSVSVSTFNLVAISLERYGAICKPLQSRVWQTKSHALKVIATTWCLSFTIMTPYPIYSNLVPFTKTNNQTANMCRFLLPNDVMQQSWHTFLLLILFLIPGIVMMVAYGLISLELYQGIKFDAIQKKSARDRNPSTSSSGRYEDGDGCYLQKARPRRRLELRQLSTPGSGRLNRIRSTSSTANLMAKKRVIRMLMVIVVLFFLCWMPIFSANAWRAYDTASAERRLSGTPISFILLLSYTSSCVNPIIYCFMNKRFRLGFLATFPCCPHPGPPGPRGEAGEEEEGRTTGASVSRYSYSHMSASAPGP

T6: guinea-pig pancreatic CCK1 receptors (Cavia porcellus, UniProt Q63931)
T6 construct: host or cells: guinea-pig pancreas
T6 sequence (Q63931 1-430): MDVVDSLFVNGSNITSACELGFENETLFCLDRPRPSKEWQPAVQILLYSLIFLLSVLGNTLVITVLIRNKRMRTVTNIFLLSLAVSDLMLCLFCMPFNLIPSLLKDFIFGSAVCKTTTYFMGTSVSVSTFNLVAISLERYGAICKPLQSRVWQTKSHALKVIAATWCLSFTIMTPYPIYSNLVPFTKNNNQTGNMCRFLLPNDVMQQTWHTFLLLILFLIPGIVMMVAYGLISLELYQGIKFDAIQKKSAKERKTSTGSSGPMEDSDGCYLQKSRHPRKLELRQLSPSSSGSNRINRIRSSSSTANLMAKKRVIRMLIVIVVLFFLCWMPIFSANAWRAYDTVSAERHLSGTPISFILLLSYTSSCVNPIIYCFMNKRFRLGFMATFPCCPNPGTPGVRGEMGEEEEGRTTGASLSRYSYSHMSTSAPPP

T7: canine CCK1 receptor variant #2 (canine, UniProt Q5D0K2 1-428)
T7 construct: Six amino-acid differences from wild type; Transiently expressed in HEK-293 cells and assayed as membrane preparations; also called canine CCK1 variant #2 receptor
T7 chain: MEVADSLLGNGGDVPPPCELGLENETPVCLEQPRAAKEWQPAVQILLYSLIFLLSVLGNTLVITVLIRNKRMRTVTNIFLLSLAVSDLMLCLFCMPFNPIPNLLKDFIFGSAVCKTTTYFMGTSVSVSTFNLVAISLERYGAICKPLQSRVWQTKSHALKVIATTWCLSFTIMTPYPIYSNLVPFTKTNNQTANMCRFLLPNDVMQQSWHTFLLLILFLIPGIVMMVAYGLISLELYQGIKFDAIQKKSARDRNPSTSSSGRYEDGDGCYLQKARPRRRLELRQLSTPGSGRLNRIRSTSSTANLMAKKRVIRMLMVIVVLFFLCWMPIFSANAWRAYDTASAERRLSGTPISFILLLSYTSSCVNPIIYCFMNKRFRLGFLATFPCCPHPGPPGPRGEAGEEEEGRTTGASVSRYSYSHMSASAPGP

T8: wild-type canine CCK1 receptor (canine, UniProt Q5D0K2 1-428)
T8 construct: Full-length receptor, stably expressed in CHO-K cells or transiently in HEK-293 cells; It was assayed as membrane preparations of those cells; also called canine cholecystokinin 1 receptor; control wild-type canine CCK1R protein
T8 sequence: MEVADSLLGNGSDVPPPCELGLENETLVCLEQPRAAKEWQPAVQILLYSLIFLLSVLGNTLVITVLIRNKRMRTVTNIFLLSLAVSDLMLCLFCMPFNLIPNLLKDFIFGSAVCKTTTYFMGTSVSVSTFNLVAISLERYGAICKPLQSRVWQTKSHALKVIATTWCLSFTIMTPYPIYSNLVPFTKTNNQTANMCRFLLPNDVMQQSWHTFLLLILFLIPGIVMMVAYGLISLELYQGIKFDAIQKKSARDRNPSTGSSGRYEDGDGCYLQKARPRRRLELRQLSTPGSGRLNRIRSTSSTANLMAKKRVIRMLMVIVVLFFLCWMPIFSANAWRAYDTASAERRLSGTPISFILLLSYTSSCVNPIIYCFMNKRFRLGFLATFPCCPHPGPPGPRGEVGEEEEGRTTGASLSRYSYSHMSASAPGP

B1: [^125I]-BH-CCK-8S (peptide, UniProt P06307 96-103, looked up)
peptide: {BH(125I)}-D[sY]MGWMDF
modifications: not fully specified (C-terminus); ends and bridges not checked; also: sulfated, site not given here, 125I Bolton-Hunter conjugate, site not given here
notes: Radioligand; also called Bolton-Hunter conjugated sulfated CCK-8

Key:
canine CCK2 receptor = target: T1, canine CCK2 receptor; test: competition binding of [125I]-BH-CCK-8S at canine CCK2 receptor; settings: for fold higher affinity at the canine CCK2 receptor compared to the canine CCK1 receptor: canine CCK2 over canine CCK1
human CCK1 receptor = target: T2, human CCK1 receptor; test: competition binding of [125I]-BH-CCK-8S at cloned human CCK1 receptor
Experimental: (§1) For radioligand binding studies, the cells were harvested by cell scraping and resulting pellets immediately frozen at −80° C. (approximately 50×10^6 cells/pellet). Frozen cell pellets were defrosted on ice in 15 ml of assay buffer (composition; 10 mM HEPES, 130 mM NaCl, 4.7 mM KCl, 5 mM MgCl2, bacitracin 0.089; pH 7.2 at 21±3° C.) and then homogenized (setting 10, 7×3 s; Polytron; Brinkmann Instruments). The homogenate was centrifuged (800×g for 10 min) and the pellet discarded. The supernatant was re-centrifuged (39,800×g for 25 min) and the final pellet re-suspended in 20 ml assay buffer (cell concentration: 25×10^5 cells ml^−1). Protein concentration was determined using BCA Protein Assay Kit (Pierce, Rockford, Ill.). All binding assays were conducted in 96 well Multiscreen GF/B filter plates (Millipore, Billerica, Mass., USA) that were pre-soaked in assay buffer for 1 h. […] Nonspecific binding was determined by inclusion of 10 μM 2-NAP (a CCK1 receptor selective antagonist; see, e.g., Hull et al., 1993, Br. J. Pharmacol., 108:734-740). All radioligand binding studies were conducted in the presence of the CCK2 receptor-selective antagonist PD-134,308 at a concentration estimated to occupy 99% of human CCK2 receptors (0.3 μM; se, e.g., Hughes et al., 1990, Proc. Natl. Acad. Sci. U.S.A., 87(17):6728-6732; Hunter et al., 1993, Mol. Pharmacol., 43:595-602). The bound radioactivity was separated by filtration using a Multiscreen Resist manifold (Millipore, Billericay, Mass., USA). The filters were washed three times with ice-cold PBS (pH 7.5) and radioactivity retained on the filters was measured by liquid scintillation counting using a TopCount (Packard BioScience, Boston, Mass.). All experiments were performed in triplicate.
(§2) Equilibrium dissociation constant (K1) values were assumed to be equal to the IC50 values obtained from the logistic curve fit as the radiolabel concentrations used in the assays were always below the KD of the radiolabel. The equilibrium dissociation constants (K1) values were calculated from the midpoint locations (IC50) following Cheng & Prusoff, eqn.
(§3) Competition-inhibition studies were conducted on the canine and human CCK1 receptor using a cell-protein concentration within the linear range of the cell number curve (80 μg/ml, cell number curves not shown).
Canine CCK1: Wild-type = target: T3, Canine CCK1: Wild-type; test: competition binding at wild-type canine CCK1 receptor transiently transfected in HEK cells; settings: n = 3, ± s.e. mean; for Ki: read-out: pKI (affinity value, -log equilibrium dissociation constant) (converted)
Experimental: (§4) For radioligand binding studies, the cells were harvested by cell scraping and resulting pellets immediately frozen at −80° C. (approximately 50×10^6 cells/pellet). Frozen cell pellets were defrosted on ice in 15 ml of assay buffer (composition; 10 mM HEPES, 130 mM NaCl, 4.7 mM KCl, 5 mM MgCl2, bacitracin 0.089; pH 7.2 at 21±3° C.) and then homogenized (setting 10, 7×3 s; Polytron; Brinkmann Instruments). The homogenate was centrifuged (800×g for 10 min) and the pellet discarded. The supernatant was re-centrifuged (39,800×g for 25 min) and the final pellet re-suspended in 20 ml assay buffer (cell concentration: 25×10^5 cells ml^−1). Protein concentration was determined using BCA Protein Assay Kit (Pierce, Rockford, Ill.). All binding assays were conducted in 96 well Multiscreen GF/B filter plates (Millipore, Billerica, Mass., USA) that were pre-soaked in assay buffer for 1 h. […] The bound radioactivity was separated by filtration using a Multiscreen Resist manifold (Millipore, Billericay, Mass., USA). The filters were washed three times with ice-cold PBS (pH 7.5) and radioactivity retained on the filters was measured by liquid scintillation counting using a TopCount (Packard BioScience, Boston, Mass.). All experiments were performed in triplicate.
as §2
(§5) In order to investigate these variants, plasmid DNAs containing the respective variant canine CCK1 receptor cDNAs and the wild type cDNA were transiently transfected into HEK-293 cells using Lipofectamine 200 transfection reagent and Opti-MEM medium (Invitrogen). Cells were harvested at 48-72 hours after transfection and the pellets were frozen at −80° C. The cells were then harvested, assayed, and the data analyzed as described above.

canine CCK1 receptor = target: T4, canine CCK1 receptor; test: competition binding of [125I]-BH-CCK-8S at cloned canine CCK1 receptor stably expressed in CHO-K cells
Experimental: The plasmids described above were used for stable transfection into CHO-K cells (Chinese Hamster Ovary) (American Type Culture Collection, Rockville, Md.) using the Effectene transfection method (Qiagen, Chatsworth, Calif.) with 2 μg plasmid for each 100 mm^2 culture dish. These cells were maintained in Ham's F12 selection medium with 10% fetal bovine serum, 2 mM L-glutamine, penicillin (50 U ml^−1), streptomycin (50 mg ml^−1) and Geneticin (0.7 mg ml^−1) (Invitrogen) at 37° C. in a humidified incubator under an atmosphere containing 5% CO2. Media was changed every other day. Isolated Geneticin resistant colonies were picked from the 100 mm^2 dishes and grown to confluence in 6 well cluster dishes. 24 individual stable clones were used in a Fluorometric Imaging Plate Reader (FLIPR) assay with CCK-8S (0.01 nM-1 μM) to select a clone with a good signal-to-noise window for use in further experiments.
as §1, §2, §3
Canine CCK1: Variant #1 = target: T5, Canine CCK1: Variant #1; test: competition binding at variant #1 canine CCK1 receptor transiently transfected in HEK cells; settings: Canine CCK1 variant #1, transiently transfected in HEK cells, n = 3, ± s.e. mean; for Ki: read-out: pKI (affinity value, -log equilibrium dissociation constant) (converted)
Experimental: as §4, §2, §5

[1] = target: T6, guinea-pig pancreatic CCK1 receptors; settings: guinea-pig pancreatic CCK1 receptors (Takinami et al., 1997); cited from earlier work
[2] = test system: putative CCK1 receptor binding sites labeled with [3H]-L-364,718; settings: canine intestine (Mao et al., 1995); cited from earlier work
[3] = target: T7, canine CCK1 receptor variant #2; test: radioligand binding (20 pM [125I]-BH-CCK-8S) against increasing membrane protein, transiently transfected HEK cells
[4] = target: T8, wild-type canine CCK1 receptor; test: saturation radioligand binding, membranes of stably transfected CHO cells, first phase of the isotherm
Experimental: The homogenate was centrifuged (800×g for 10 min) and the pellet discarded. The supernatant was re-centrifuged (39,800×g for 25 min) and the final pellet re-suspended in 20 ml assay buffer (cell concentration: 25×10⁵ cells ml⁻¹). […] All binding assays were conducted in 96 well Multiscreen GF/B filter plates (Millipore, Billerica, Mass., USA) that were pre-soaked in assay buffer for 1 h. For competition studies, cell membranes (45 μl) were incubated with 60 μM [¹²⁵I]-BH-CCK-8S (50 μl) in the presence of competing ligand (15 μl) for 90 min (total volume of 150 μl). […] The bound radioactivity was separated by filtration using a Multiscreen Resist manifold (Millipore, Billericay, Mass., USA). The filters were washed three times with ice-cold PBS (pH 7.5) and radioactivity retained on the filters was measured by liquid scintillation counting using a TopCount (Packard BioScience, Boston, Mass.). All experiments were performed in triplicate.

[5] = Canine CCK2, [125I]-BH-CCK-8S radiolabel, n = 3, ± s.e. mean
[6] = Canine CCK2, [125I]-BH-CCK-8S radiolabel, n = 3, ± s.e. mean, read-out: pKI (affinity value, -log equilibrium dissociation constant) (converted)
[7] = Human CCK1, [125I]-BH-CCK-8S radiolabel, n = 3, ± s.e. mean
[8] = Canine CCK1, CHO-K cells, [125I]-BH-CCK-8S radiolabel, n = 3, ± s.e. mean
[9] = Human CCK1, [125I]-BH-CCK-8S radiolabel, n = 3, ± s.e. mean, read-out: pKI (affinity value, -log equilibrium dissociation constant) (converted)
[10] = Canine CCK1, CHO-K cells, [125I]-BH-CCK-8S radiolabel, n = 3, ± s.e. mean, read-out: pKI (affinity value, -log equilibrium dissociation constant) (converted)

Molecule	nH (Hill slope) (canine CCK2 receptor; [5])	Ki (canine CCK2 receptor; [6]) [nM]	Ki (human CCK1 receptor) [nM]	nH (Hill slope) (human CCK1 receptor; [7])	nH (Hill slope) (Canine CCK1: Wild-type)	Ki (Canine CCK1: Wild-type) [nM]	Ki (canine CCK1 receptor) [nM]	nH (Hill slope) (canine CCK1 receptor; [8])	Ki (canine CCK2 receptor) [nM]	fold higher affinity at the canine CCK2 receptor compared to the canine CCK1 receptor (canine CCK2 receptor) [fold]	nH (Hill slope) (Canine CCK1: Variant #1)	Ki (Canine CCK1: Variant #1) [nM]	Ki (human CCK1 receptor; [9]) [nM]	reported pK1 value [1]	Ki (canine CCK1 receptor; [10]) [nM]	inhibitory effect at [3H]-L-364,718 binding sites [2]	fold higher affinity at the canine CCK1 receptor (compared to canine CCK2) (canine CCK1 receptor; canine CCK1 over canine CCK2) [fold]	binding result [3]	pKD [4]
CN1C(=O)[C@@H](NC(=O)c2cc3ccccc3[nH]2)N=C(c2ccccc2)c2ccccc21 [L-364,718]	0.87 ± 0.06	24																	
Cc1cccc(NC(=O)N[C@@H]2N=C(c3ccccc3)c3ccccc3N(C)C2=O)c1 [L-365,260, 3R(+)—N-(2,3-dihydro-1-methyl-2-oxo-5-phenyl-1H-1,4-benzodiazepin-3-yl)-N′-(3-methylphenyl)urea]	0.95 ± 0.08		245	1.32 ± 0.14	0.96 ± 0.32	219	245	1.17 ± 0.09	93.3	~2.6	1.08 ± 0.33	155							
CNc1cccc(NC(=O)N[C@@H]2N=C(c3ccccn3)c3ccccc3N(CC(=O)C(C)(C)C)C2=O)c1 [YF476]	0.91 ± 0.10	1.05		0.95 ± 0.07	0.60 ± 0.22	12		0.88 ± 0.08		~12	1.14 ± 0.37	15.1	13.5	~6.5	12.3				
Cc1cccc(NC(=O)N[C@@H]2N=C(c3ccccc3)c3ccccc3N(CC(=O)c3ccccc3C)C2=O)c1 [YM022, 1-[(R)-2,3-dihydro-1-(2-methylphenacyl)-2-oxo-5-phenyl-1H-1,4-benzodiazepin-3-yl]-3-(3-methylphenyl)urea]	0.92 ± 0.10			1.15 ± 0.14	1.17 ± 0.30	11		1.09 ± 0.13	0.195	27	1.39 ± 0.39	8.32	7.76		5.25	no inhibitory effect			
CCCCCN(CCCOC)C(=O)[C@@H](CCC(=O)O)NC(=O)c1ccc(Cl)c(Cl)c1 [dexloxiglumide, (R)-4-(3,4-Dichloro-benzoylamino)-4-[(3-methoxy-propyl)-pentyl-carbamoyl]-butyric acid]	0.71 ± 0.09	2750		0.91 ± 0.18	1.33 ± 0.43	16.6		0.83 ± 0.13			0.90 ± 0.17	16.6	29.5		29.5		93		
B1																		no binding (tested: 2500 µg/ml protein)	10.5 pKD (negative log of KD)

From patent US20080124741A1, “Canine Cholecystokinin 1 Receptor Materials And Their Use” (priority 2004, published 2008)
